# Laboratory results reported in article PMC5453931, “Cathelicidin-trypsin inhibitor loop conjugate represents a promising antibiotic candidate with protease stability” (Scientific Reports, 2017).
# Where a SMILES comes first, the peptide text is derived from it. Bridges are numbered along the chain shown (N, C = ends).
# Tests used:
# E. coli 08040726 [1] = assay type: cell-based; settings: 08040726, 18 h
# Procedure: (§1) A two-fold broth microdilution method described in our previous paper was used to determine the antimicrobial activities of parental and hybrid peptides. More than 30 strains including Gram-negative bacteria, Gram-positive bacteria and fungi were used in the current assay, in which the standard strains were stored in our lab and the clinical strains were collected from local hospitals. Briefly, bacteria were incubated in Mueller-Hinton broth (MH broth) at 37 °C to exponential phase and diluted to 10^6 CFU/mL. A serial dilution of peptide sample were prepared in 96-well microtiter plates (50 μL) and mixed with equal volume of microbial inoculums (50 μL). The plate was slowly shaken in the microbial incubator, and measured at A595 after incubation at 37 °C for 18 h. The minimal concentrations at which no microbial growth occurred were recorded as MIC (minimal inhibitory concentration) values. The traditional antibiotic ampicillin was used as positive control. The results are shown in an average of the MICs obtained from three independent experiments.
# Vibrio harveyi = experiment: microbe, parasite or virus in culture; assay type: cell-based; settings: 18 h
# Procedure: as §1
# Aeromonas veronii = experiment: microbe, parasite or virus in culture; assay type: cell-based; settings: Aquatic pathogenic bacteria; two-fold broth microdilution, 37 °C, 18 h; mean of three independent experiments in duplicates
# Procedure: as §1
# E. Coli 08032823 = experiment: microbe, parasite or virus in culture; assay type: cell-based; settings: 08032823, 18 h
# Procedure: as §1
# [2] = test system: Nocardia asteroides 08052412; experiment: microbe, parasite or virus in culture; assay type: cell-based; settings: 18 h
# Procedure: as §1
# P. Aeruginosa 08021015 = experiment: microbe, parasite or virus in culture; assay type: cell-based; settings: 08021015, 18 h
# Procedure: as §1
# Candida glabrata 08A802 = experiment: microbe, parasite or virus in culture; assay type: cell-based; settings: 08A802, 18 h
# Procedure: as §1
# S. Aureus 08032615 = experiment: microbe, parasite or virus in culture; assay type: cell-based; settings: 08032615, 18 h
# Procedure: as §1
# [3] = test system: Enterococcus faecium 08052315; experiment: microbe, parasite or virus in culture; assay type: cell-based; settings: 08052315, 18 h
# Procedure: as §1
# [4] = test system: Candida albicans 08030102; experiment: microbe, parasite or virus in culture; assay type: cell-based; settings: 08030102, 18 h
# Procedure: as §1
# Vibrio cholerae = experiment: microbe, parasite or virus in culture; assay type: cell-based; settings: 18 h
# Procedure: as §1
# S. Aureus 08032810 = experiment: microbe, parasite or virus in culture; assay type: cell-based; settings: Gram-positive; two-fold broth microdilution, MH broth, 37 °C, 18 h; mean of three independent experiments in duplicates
# Procedure: as §1
# K. Pneumoniae 08031012 = experiment: microbe, parasite or virus in culture; assay type: cell-based; settings: Gram-negative; two-fold broth microdilution, MH broth, 37 °C, 18 h; mean of three independent experiments in duplicates
# Procedure: as §1
# Proteus mirabilis 1376 = experiment: microbe, parasite or virus in culture; assay type: cell-based; settings: 1376, 18 h
# Procedure: as §1
# Aeromonas sobria = experiment: microbe, parasite or virus in culture; assay type: cell-based; settings: Aquatic pathogenic bacteria; two-fold broth microdilution, 37 °C, 18 h; mean of three independent experiments in duplicates
# Procedure: as §1
# Edwardsiella tarda = experiment: microbe, parasite or virus in culture; assay type: cell-based; settings: 18 h
# Procedure: as §1
# S. Aureus 08032706 = experiment: microbe, parasite or virus in culture; assay type: cell-based; settings: Gram-positive; two-fold broth microdilution, MH broth, 37 °C, 18 h; mean of three independent experiments in duplicates
# Procedure: as §1
# [5] = test system: Bacillus subtilis 08042313; experiment: microbe, parasite or virus in culture; assay type: cell-based; settings: 08042313, 18 h
# Procedure: as §1
# [6] = test system: Escherichia coli ATCC25922; experiment: microbe, parasite or virus in culture; assay type: cell-based; settings: ATCC25922, 18 h
# Procedure: as §1
# S. Maltophilia 090223 = experiment: microbe, parasite or virus in culture; assay type: cell-based; settings: 090223, 18 h
# Procedure: as §1
# Vibrio brasiiensis = experiment: microbe, parasite or virus in culture; assay type: cell-based; settings: 18 h
# Procedure: as §1
# K. Pneumoniae 08040202 = experiment: microbe, parasite or virus in culture; assay type: cell-based; settings: Gram-negative; two-fold broth microdilution, MH broth, 37 °C, 18 h; mean of three independent experiments in duplicates
# Procedure: as §1
# 08030209 = experiment: microbe, parasite or virus in culture; assay type: cell-based, Arcyria cinerea; settings: Fungi; two-fold broth microdilution, 37 °C, 18 h; mean of three independent experiments in duplicates
# Procedure: as §1
# E. Coli 08032813 = experiment: MIC, two-fold broth microdilution; assay type: cell-based; settings: Gram-negative; two-fold broth microdilution, MH broth, 37 °C, 18 h; mean of three independent experiments in duplicates
# How it was run: (§2)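 Peptides were titrated in two-fold steps against exponential-phase inocula (10^6 CFU/mL prior to 1:1 addition) in MH broth. After 18 h incubation at 37 °C with slow shaking, optical density at 595 nm was measured; averaged MICs come from three separate experiments.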
# Vibrio Parahaemolyticus = experiment: MIC, two-fold broth microdilution; assay type: cell-based; settings: Aquatic pathogenic bacteria; two-fold broth microdilution, 37 °C, 18 h; mean of three independent experiments in duplicates
# How it was run: as §2
# [7] = test system: Staphylococcus epidermidis; experiment: MIC, two-fold broth microdilution; assay type: cell-based; settings: Gram-positive; two-fold broth microdilution, MH broth, 37 °C, 18 h; mean of three independent experiments in duplicates
# How it was run: as §2
# E. coli 08040726 [8] = experiment: MIC, two-fold broth microdilution (second listing of the strain number); assay type: cell-based; settings: Gram-negative, MH broth, 37 °C, 18 h, mean of three independent experiments in duplicates
# Procedure: as §1
# trypsin = experiment: Trypsin inhibition assay (NBLAN hydrolysis, Dixon method); assay type: biochemical; settings: 50 mM Tris–HCl pH 7.8, trypsin 0.1 mg/mL, 5 min pre-incubation at 37 °C, substrate NBLAN 48, 96, 192 μg/mL, 405 nm
# Procedure: The inhibition effect on the hydrolysis of synthetic chromogenic substrate by trypsin was assayed in 50 mM Tris–HCl, pH 7.8 buffer at room temperature. The trypsin of final concentration of 0.1 mg/mL and different amounts of the hybrid peptide (final concentrations ranging from 0 to 0.16 μg/mL) were pre-incubated for 5 min at 37 °C. N-α-Benzoyl-DL-arginine p-nitroanilide hydrochloride (NBLAN) was used as a substrate for trypsin. The reaction was initiated by the addition of NBLAN with a final concentration of 48, 96 and 192 μg/mL, respectively. The formation of yellow product, p-nitroaniline was monitored continuously at 405 nm[61]. The inhibition constant Ki of the hybrid peptides were determined according to the method of Dixon (1953)[62].
compound,measurement,setting,value
CC[C@H](C)[C@@H]1NC(=O)[C@H](CO)NC(=O)[C@H](CCCCN)NC(=O)[C@H]([C@@H](C)O)NC(=O)[C@H](Cc2c[nH]c3ccccc23)NC(=O)[C@@H](NC(=O)[C@H](Cc2ccccc2)NC(=O)[C@H](CCCCN)NC(=O)[C@H](CCCCN)NC(=O)[C@@H](NC(=O)[C@H](C)NC(=O)[C@H](CCCNC(=N)N)NC(=O)[C@H](CCCNC(=N)N)NC(=O)[C@@H](NC(=O)[C@H](CO)NC(=O)[C@H](CCCCN)NC(=O)[C@H](CC(C)C)NC(=O)[C@H](CC(C)C)NC(=O)[C@H](CCCNC(=N)N)NC(=O)[C@H](CCCCN)NC(=O)[C@H](Cc2ccccc2)NC(=O)[C@H](Cc2ccccc2)NC(=O)[C@@H](N)CCCCN)C(C)C)C(C)C)CSSC[C@@H](C(=O)O)NC(=O)[C@@H]2CCCN2C(=O)[C@H](CCCCN)NC(=O)[C@@H]2CCCN2C(=O)[C@@H]2CCCN2C1=O [H3TI] (H-KFFKRLLKSVRRAVKKFCWTKSIPPKPC-OH; disulfide 18-28),MIC E. coli 08040726,E. coli 08040726 [1],9.38 µg/mL
same,MIC Vibrio harveyi,Vibrio harveyi,37.5 µg/mL
same,MIC Aeromonas veronii,Aeromonas veronii,— (no detectable activity in MIC assay in dose of 200 µg/mL or in trypsin inhibition assay at concentration of 160 μg/mL)
same,MIC E. Coli 08032823,E. Coli 08032823,37.5 µg/mL
same,MIC Nocardia asteroides 08052412,[2],18.75 µg/mL
same,MIC P. Aeruginosa 08021015,P. Aeruginosa 08021015,37.5 µg/mL
same,MIC Candida glabrata 08A802,Candida glabrata 08A802,4.69 µg/mL
same,MIC S. Aureus 08032615,S. Aureus 08032615,37.5 µg/mL
same,MIC Enterococcus faecium 08052315,[3],9.38 µg/mL
same,MIC Candida albicans 08030102,[4],4.69 µg/mL
same,MIC Vibrio cholerae,Vibrio cholerae,75 µg/mL
same,MIC S. Aureus 08032810,S. Aureus 08032810,— (no detectable activity in MIC assay in dose of 200 µg/mL or in trypsin inhibition assay at concentration of 160 μg/mL)
same,MIC K. Pneumoniae 08031012,K. Pneumoniae 08031012,— (no detectable activity in MIC assay in dose of 200 µg/mL or in trypsin inhibition assay at concentration of 160 μg/mL)
same,MIC Proteus mirabilis 1376,Proteus mirabilis 1376,37.5 µg/mL
same,MIC Aeromonas sobria,Aeromonas sobria,— (no detectable activity in MIC assay in dose of 200 µg/mL or in trypsin inhibition assay at concentration of 160 μg/mL)
same,MIC Edwardsiella tarda,Edwardsiella tarda,37.5 µg/mL
same,MIC S. Aureus 08032706,S. Aureus 08032706,— (no detectable activity in MIC assay in dose of 200 µg/mL or in trypsin inhibition assay at concentration of 160 μg/mL)
same,MIC Bacillus subtilis 08042313,[5],9.38 µg/mL
same,MIC Escherichia coli ATCC25922,[6],37.5 µg/mL
same,MIC S. Maltophilia 090223,S. Maltophilia 090223,18.75 µg/mL
same,MIC Vibrio brasiiensis,Vibrio brasiiensis,18.75 µg/mL
same,MIC K. Pneumoniae 08040202,K. Pneumoniae 08040202,— (no detectable activity in MIC assay in dose of 200 µg/mL or in trypsin inhibition assay at concentration of 160 μg/mL)
same,MIC Arcyria cinerea 08030209,08030209,— (no detectable activity in MIC assay in dose of 200 µg/mL or in trypsin inhibition assay at concentration of 160 μg/mL)
same,MIC E. Coli 08032813,E. Coli 08032813,— (no detectable activity in MIC assay in dose of 200 µg/mL or in trypsin inhibition assay at concentration of 160 μg/mL)
same,MIC Vibrio Parahaemolyticus,Vibrio Parahaemolyticus,4.69 µg/mL
same,MIC Staphylococcus epidermidis,[7],— (no detectable activity in MIC assay in dose of 200 µg/mL or in trypsin inhibition assay at concentration of 160 μg/mL)
same,MIC E. Coli 08040726 (second line with this strain number),E. coli 08040726 [8],— (no detectable activity in MIC assay in dose of 200 µg/mL or in trypsin inhibition assay at concentration of 160 μg/mL)
same,Ki,trypsin,5.5 µM
